# Measurements from ChEMBL document CHEMBL5046290, “Design, Synthesis, and Preclinical Profiling of GSK3739936 (BMS-986180), an Allosteric Inhibitor of HIV-1 Integrase with Broad-Spectrum Activity toward 124/125 Polymorphs” (J Med Chem, 2022).
# What was measured:
# Cytochrome P450 3A4 = Cytochrome P450 3A4 (Homo sapiens, UniProt P08684); assay: Inhibition of human CYP3A4; format: ADME
# [1] = Toxicity in rat assessed as histological changes in adrenal gland at 500 mg/kg/day; format: organism-based; conditions: in vivo
# [2] = Toxicity in dog assessed as vomiting at >=100 mg/kg, po administered as single dose; format: organism-based, Canis lupus familiaris; conditions: in vivo
# [3] = AUC in cynomolgus monkey at 2 mg/kg, po by LC-MS/MS analysis; format: ADME, organism-based, Macaca fascicularis; parameters: dose 2 mg/kg; conditions: in vivo
# [4] = Clearance in Beagle dog at 1 mg/kg, iv by LC-MS/MS analysis; format: ADME, organism-based, Canis lupus familiaris; conditions: in vivo
# UGT [5] = assay: Metabolic stability assessed as dog UGT-mediated metabolism by measuring half life by phase II UGT conjugation assay; format: ADME, Canis lupus familiaris
# [6] = Cardiotoxicity in dog heart assessed as decrease in blood pressure at 300 mg/kg; format: toxicity, organism-based, Canis lupus familiaris; parameters: scale not given: the % may be the effect or the level left; conditions: in vivo
# [7] = Plasma protein binding in human; format: ADME, cell-free; conditions: read-out: PPB (converted)
# UGT [8] = assay: Metabolic stability assessed as monkey UGT-mediated metabolism by measuring half life by phase II UGT conjugation assay; format: ADME, Macaca mulatta; conditions: rhesus monkey
# [9] = Toxicity in rat at 500 mg/kg/day for one week; format: organism-based; conditions: in vivo
# [10] = Volume of distribution at steady state in CD-1 mouse at 1 mg/kg, iv by LC-MS/MS analysis; format: ADME, organism-based; conditions: in vivo, read-out: Vdss
# [11] = Toxicity in rat assessed as change in parathyroid gland at 500 mg/kg/day; format: organism-based; conditions: in vivo
# [12] = Toxicity in rat assessed as maximum tolerated dose; conditions: in vivo
# [13] = Tmax in CD-1 mouse at 5 mg/kg, po by LC-MS/MS analysis; format: ADME, organism-based; conditions: in vivo
# Cytochrome P450 2C8 = target: T1, Cytochrome P450 2C8 (Homo sapiens, UniProt P10632); assay: Inhibition of human CYP2C8; format: ADME
# T1 sequence (P10632 whole entry): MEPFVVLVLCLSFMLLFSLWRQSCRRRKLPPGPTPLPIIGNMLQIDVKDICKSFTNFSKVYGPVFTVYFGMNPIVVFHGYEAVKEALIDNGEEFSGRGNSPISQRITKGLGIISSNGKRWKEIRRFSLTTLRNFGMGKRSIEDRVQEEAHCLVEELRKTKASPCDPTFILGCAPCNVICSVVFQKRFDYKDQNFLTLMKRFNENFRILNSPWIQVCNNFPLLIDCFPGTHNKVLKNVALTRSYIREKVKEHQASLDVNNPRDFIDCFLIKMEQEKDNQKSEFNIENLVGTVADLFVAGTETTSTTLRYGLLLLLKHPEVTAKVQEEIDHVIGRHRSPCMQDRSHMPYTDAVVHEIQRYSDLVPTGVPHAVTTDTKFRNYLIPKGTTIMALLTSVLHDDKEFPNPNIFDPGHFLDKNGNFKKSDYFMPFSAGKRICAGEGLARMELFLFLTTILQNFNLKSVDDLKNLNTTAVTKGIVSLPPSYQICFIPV
# [14] = Permeability of the compound at pH 5.5 by PAMPA assay; format: ADME; conditions: read-out: permeability
# [15] = Elimination half life in Sprague-Dawley rat at 1 mg/kg, iv by LC-MS/MS analysis; format: ADME, organism-based; conditions: in vivo, read-out: beta t1/2 (converted)
# [16] = Elimination half life in Beagle dog at 1 mg/kg, iv by LC-MS/MS analysis; format: ADME, organism-based, Canis lupus familiaris; conditions: in vivo, read-out: beta t1/2 (converted)
# [17] = Cytotoxicity against human MT2 cells assessed as cell viability measured after 4 days by XTT assay; format: toxicity, cell-based; conditions: time 4 day
# [18] = Toxicity in rat assessed as histological changes in thymus at 500 mg/kg/day; format: organism-based; conditions: in vivo
# [19] = Bioavailability in Beagle dog at 2 mg/kg, po by LC-MS/MS analysis; format: ADME, organism-based, Canis lupus familiaris; conditions: in vivo
# Salmonella typhimurium = assay: Genotoxicity in Salmonella typhimurium TA102 by Ames test; format: toxicity, organism-based; conditions: salmonella enterica subsp. enterica serovar typhimurium
# [20] = Stability in pH 1 for 2 days at 50 degC; format: physicochemical; conditions: buffer, pH 1, 48 h; time 2 day
# [21] = Elimination half life in Cynomolgus monkey at 1 mg/kg, iv by LC-MS/MS analysis; format: ADME, organism-based, Macaca fascicularis; conditions: in vivo, read-out: beta t1/2 (converted)
# [22] = Toxicity in rat assessed as histological changes in bone marrow at 500 mg/kg/day; format: organism-based; conditions: in vivo
# [23] = Metabolic stability in human liver microsome assessed half life at 0.5 uM by LC-MS/MS analysis; format: ADME; conditions: liver microsomes
# [24] = Toxicity in rat assessed as vacuolation of kidney at 500 mg/kg/day; format: organism-based; conditions: in vivo
# Cytochrome P450 2C9 = Cytochrome P450 2C9 (Homo sapiens, UniProt P11712); assay: Inhibition of human CYP2C9; format: ADME
# Sequence of Cytochrome P450 2C9 (P11712 whole entry): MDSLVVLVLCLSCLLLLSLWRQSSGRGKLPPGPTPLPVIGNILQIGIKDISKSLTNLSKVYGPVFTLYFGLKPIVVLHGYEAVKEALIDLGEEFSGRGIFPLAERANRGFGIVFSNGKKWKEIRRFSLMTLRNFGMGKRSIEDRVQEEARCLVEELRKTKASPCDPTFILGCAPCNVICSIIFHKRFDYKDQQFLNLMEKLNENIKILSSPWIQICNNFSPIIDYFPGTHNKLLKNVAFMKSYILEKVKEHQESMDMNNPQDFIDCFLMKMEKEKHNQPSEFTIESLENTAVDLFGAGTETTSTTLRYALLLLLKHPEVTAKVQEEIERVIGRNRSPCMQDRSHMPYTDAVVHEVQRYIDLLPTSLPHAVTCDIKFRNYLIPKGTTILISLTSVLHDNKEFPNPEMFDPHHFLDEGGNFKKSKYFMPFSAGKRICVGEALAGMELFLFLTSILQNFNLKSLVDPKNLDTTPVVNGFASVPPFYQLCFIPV
# [25] = Stability in pH 7.4 for 2 weeks at 50 degC; format: physicochemical; conditions: buffer, pH 7.4, 336 h
# UGT [26] = assay: Metabolic stability assessed as rat UGT-mediated metabolism by measuring half life by phase II UGT conjugation assay; format: ADME
# [27] = Cardiotoxicity in dog heart assessed as increase in heart rate at 300 mg/kg; format: toxicity, organism-based, Canis lupus familiaris; conditions: in vivo
# [28] = test system: Human immunodeficiency virus 1; assay: Antiviral activity against recombinant HIV1 NLRep-Rluc harbouring polymorphic NA infected in human MT-2 cells assessed as inhibition of virus growth in presence of fetal bovine serum by measuring luciferase activity after 5 days; format: functional, organism-based; conditions: Human immunodeficiency virus 1, NLRep, MT2, 120 h
# [29] = Clearance in CD-1 mouse at 1 mg/kg, iv by LC-MS/MS analysis; format: ADME, organism-based; conditions: in vivo
# [30] = Cmax in cynomolgus monkey at 2 mg/kg, po by LC-MS/MS analysis; format: ADME, organism-based, Macaca fascicularis; parameters: route oral, dose 2 mg/kg; conditions: in vivo
# [31] = Cardiotoxicity in dog heart assessed as change in electrocardiographic parameter upto 128 uM of plasma concentration; format: toxicity, Canis lupus familiaris
# [32] = target: Voltage-gated inwardly rectifying potassium channel KCNH2 (Homo sapiens, UniProt Q12809); assay: Inhibition of hERG; format: toxicity
# Sequence of Voltage-gated inwardly rectifying potassium channel KCNH2 (Q12809 whole entry): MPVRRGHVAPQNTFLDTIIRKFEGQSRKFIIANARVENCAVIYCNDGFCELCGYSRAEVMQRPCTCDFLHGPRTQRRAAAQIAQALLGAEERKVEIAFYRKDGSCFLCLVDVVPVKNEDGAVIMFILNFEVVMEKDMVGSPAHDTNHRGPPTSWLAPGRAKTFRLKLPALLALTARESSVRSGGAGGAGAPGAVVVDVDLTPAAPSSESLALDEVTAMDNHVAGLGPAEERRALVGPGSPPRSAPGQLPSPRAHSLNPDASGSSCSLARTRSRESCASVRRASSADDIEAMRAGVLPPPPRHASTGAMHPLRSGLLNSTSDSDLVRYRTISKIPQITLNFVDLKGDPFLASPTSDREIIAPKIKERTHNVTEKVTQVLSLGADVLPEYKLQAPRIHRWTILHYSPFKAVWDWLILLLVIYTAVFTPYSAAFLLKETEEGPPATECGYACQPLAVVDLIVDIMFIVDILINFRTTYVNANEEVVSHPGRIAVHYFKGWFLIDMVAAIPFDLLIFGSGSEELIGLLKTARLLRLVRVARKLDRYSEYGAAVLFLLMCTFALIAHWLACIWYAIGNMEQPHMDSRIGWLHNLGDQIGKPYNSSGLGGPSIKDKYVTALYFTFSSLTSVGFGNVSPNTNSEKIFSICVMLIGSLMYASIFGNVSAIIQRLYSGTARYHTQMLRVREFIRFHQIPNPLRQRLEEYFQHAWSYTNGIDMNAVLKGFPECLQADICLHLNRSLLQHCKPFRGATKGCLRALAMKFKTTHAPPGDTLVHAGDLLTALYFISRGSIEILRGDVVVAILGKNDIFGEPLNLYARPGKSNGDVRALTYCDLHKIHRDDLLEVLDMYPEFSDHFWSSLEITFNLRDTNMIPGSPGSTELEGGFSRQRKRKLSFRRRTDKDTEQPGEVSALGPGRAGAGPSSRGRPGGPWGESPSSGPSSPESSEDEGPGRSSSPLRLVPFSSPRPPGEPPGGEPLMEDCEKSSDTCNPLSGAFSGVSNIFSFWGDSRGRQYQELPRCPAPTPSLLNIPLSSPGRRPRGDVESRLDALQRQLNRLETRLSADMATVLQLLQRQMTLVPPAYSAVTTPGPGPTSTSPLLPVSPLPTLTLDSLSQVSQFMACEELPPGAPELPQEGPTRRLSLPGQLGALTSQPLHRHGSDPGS
# [33] = test system: Human immunodeficiency virus 1; assay: Antiviral activity against recombinant HIV1 NLRep-Rluc harbouring polymorphic T124/T125 integrase infected in human MT-2 cells assessed as inhibition of virus growth in presence of fetal bovine serum by measuring luciferase activity after 5 days; format: functional, organism-based, MT2; conditions: Human immunodeficiency virus 1, NLRep, MT2, 120 h
# [34] = Volume of distribution at steady state in Sprague-Dawley rat at 1 mg/kg, iv by LC-MS/MS analysis; format: ADME, organism-based; conditions: in vivo, read-out: Vdss
# [35] = Cmax in Beagle dog at 2 mg/kg, po by LC-MS/MS analysis; format: ADME, organism-based, Canis lupus familiaris; parameters: route oral, dose 2 mg/kg; conditions: in vivo
# [36] = Stability in pH 4 for 2 weeks at 50 degC; format: physicochemical; conditions: buffer, pH 4, 336 h
# [37] = Cmax in Sprague-Dawley rat at 5 mg/kg, po by LC-MS/MS analysis; format: ADME, organism-based; parameters: route oral, dose 5 mg/kg; conditions: in vivo
# CYP [38] = assay: Half life in monkey assessed as CYP mediated metabolism in presence of […] by phase I metabolic oxidation assay; format: ADME, Macaca mulatta; conditions: rhesus monkey
# [39] = Tmax in cynomolgus monkey at 2 mg/kg, po by LC-MS/MS analysis; format: ADME, organism-based, Macaca fascicularis; conditions: in vivo
# L-type calcium channel = L-type calcium channel (Homo sapiens, UniProt O60840+Q01668+Q13698+Q13936); assay: Inhibition of calcium channel, Type L (unknown origin) at 10 uM; format: toxicity
# CYP [40] = assay: Half life in dog assessed as CYP mediated metabolism in presence of […] by phase I metabolic oxidation assay; format: ADME, Canis lupus familiaris
# [41] = Oral bioavailability in Sprague-Dawley rat at 5 mg/kg by LC-MS/MS analysis; format: ADME, organism-based; conditions: in vivo
# Sequence of Cytochrome P450 3A4 (P08684 whole entry): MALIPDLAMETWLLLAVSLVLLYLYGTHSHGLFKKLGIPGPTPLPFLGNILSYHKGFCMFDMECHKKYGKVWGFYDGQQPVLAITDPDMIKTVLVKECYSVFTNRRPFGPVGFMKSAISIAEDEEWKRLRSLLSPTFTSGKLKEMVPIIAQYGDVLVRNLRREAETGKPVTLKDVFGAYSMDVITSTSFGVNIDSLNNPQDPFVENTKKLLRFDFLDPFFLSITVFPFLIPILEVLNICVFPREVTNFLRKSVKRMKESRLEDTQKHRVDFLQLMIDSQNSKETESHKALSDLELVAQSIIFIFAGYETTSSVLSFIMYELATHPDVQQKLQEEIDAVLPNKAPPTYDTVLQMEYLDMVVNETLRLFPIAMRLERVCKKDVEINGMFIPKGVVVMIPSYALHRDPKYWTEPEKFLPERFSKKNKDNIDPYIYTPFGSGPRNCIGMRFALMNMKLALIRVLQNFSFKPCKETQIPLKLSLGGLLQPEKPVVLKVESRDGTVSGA
structure (smiles),measurement,setting,value
Cc1nc(C)c([C@H](OC(C)(C)C)C(=O)O)c(N2CCC(C)(C)CC2)c1-c1ccc(OCCc2ccc(F)cc2)cc1,IC50,Cytochrome P450 3A4,≥ 24.3 µM
same,Activity,[1],Toxic
same,Activity,[2],Toxic
same,AUC,[3],2.23 µM·h
same,clearance,[4],2.9 mL/min/kg
same,half-life,UGT [5],≥ 2 h
same,Activity,[6],6%
same,fraction unbound,[7],0.2
same,half-life,UGT [8],≥ 2 h
same,Activity,[9],Toxic
same,Vd,[10],2.4 L/kg
same,Activity,[11],Toxic
same,MTD,[12],50 mg/kg/day
same,Tmax,[13],5 h
same,IC50,Cytochrome P450 2C8,≥ 24.3 µM
same,Papp,[14],89.6 ×10⁻⁶ cm/s
same,half-life,[15],4.3 h
same,half-life,[16],5.1 h
same,CC50 at 96 h,[17],≥ 33.5 µM
same,Activity,[18],Toxic
same,bioavailability,[19],75%
same,Activity,Salmonella typhimurium,Non-Toxic
same,Stability,[20],Unstable
same,half-life,[21],2.4 h
same,Activity,[22],Toxic
same,half-life at 0.5 µM,[23],1.42 h
same,Activity,[24],Toxic
same,IC50,Cytochrome P450 2C9,≥ 24.3 µM
same,Stability,[25],Stable
same,half-life,UGT [26],≥ 2 h
same,Activity,[27],15%
same,EC50,[28],0.0038 µM
same,clearance,[29],5.4 mL/min/kg
same,Cmax,[30],525 nM
same,Activity,[31],Non-Toxic
same,IC50,[32],0.67 µM
same,EC50,[33],0.0017 µM
same,Vd,[34],0.8 L/kg
same,Cmax,[35],2960 nM
same,Stability,[36],Stable
same,Cmax,[37],2760 nM
same,half-life,CYP [38],0.983 h
same,Tmax,[39],2 h
same,inhibition at 10 µM,L-type calcium channel,96%
same,half-life,CYP [40],> 2 h
same,bioavailability,[41],52%
